{"source": "patent US6544989B2", "about": "“Benzazoles: benzoxazole, benzthiazole and benzimidazole derivatives” (Syngenta Limited, priority 1998, dated 2003)", "note": "Marks after values point to notes of the source that are not given here."}
{"test_system": "Plasmopara viticola", "assay": "Fungicidal test, Plasmopara viticola (PLASVI) on vines, PRCO", "assay_type": "in vivo", "settings": "METHOD 2 (unbanded)"}
{"smiles": "CCC(CC)c1nc2cc(CC(=O)Nc3snc(C)c3Cl)ccc2o1", "note": "[13(A3)]", "PLASVI 1 d Prot/Foir PRCO": 100}
{"smiles": "CC(C)=Cc1nc2cc(CC(=O)Nc3snc(C)c3Cl)ccc2o1", "note": "[46(A3)]", "PLASVI 1 d Prot/Foir PRCO": 99}
{"smiles": "CC=C(C)c1nc2cc(CC(=O)Nc3snc(C)c3Cl)ccc2o1", "note": "[47(A3)]", "PLASVI 1 d Prot/Foir PRCO": 92}
{"smiles": "Cc1nsc(NC(=O)Cc2ccc3oc(COc4ccccc4)nc3c2)c1Cl", "note": "[140(A3)]", "PLASVI 1 d Prot/Foir PRCO": 63}
{"smiles": "CSc1nc2cc(CC(=O)Nc3snc(C)c3Cl)ccc2o1", "note": "[220(A3)]", "PLASVI 1 d Prot/Foir PRCO": 6}
{"smiles": "Cc1nsc(NC(=O)Cc2ccc3oc(-c4ccc(C(C)(C)C)cc4)nc3c2)c1Cl", "note": "[252(A3)]", "PLASVI 1 d Prot/Foir PRCO": 38}
{"test_system": "Uncinula necator", "assay": "Fungicidal test, Uncinula necator (UNCINE) on vines, PRCO", "assay_type": "in vivo", "settings": "METHOD 2 (unbanded)"}
{"smiles": "CCC(CC)c1nc2cc(CC(=O)Nc3snc(C)c3Cl)ccc2o1", "note": "[13(A3)]", "UNCINE 1 d Prot/Foir PRCO": 100}
{"smiles": "CC(C)=Cc1nc2cc(CC(=O)Nc3snc(C)c3Cl)ccc2o1", "note": "[46(A3)]", "UNCINE 1 d Prot/Foir PRCO": 100}
{"smiles": "CC=C(C)c1nc2cc(CC(=O)Nc3snc(C)c3Cl)ccc2o1", "note": "[47(A3)]", "UNCINE 1 d Prot/Foir PRCO": 98}
{"smiles": "Cc1nsc(NC(=O)Cc2ccc3oc(COc4ccccc4)nc3c2)c1Cl", "note": "[140(A3)]", "UNCINE 1 d Prot/Foir PRCO": 99}
{"smiles": "CSc1nc2cc(CC(=O)Nc3snc(C)c3Cl)ccc2o1", "note": "[220(A3)]", "UNCINE 1 d Prot/Foir PRCO": "−5"}
{"smiles": "Cc1nsc(NC(=O)Cc2ccc3oc(-c4ccc(C(C)(C)C)cc4)nc3c2)c1Cl", "note": "[252(A3)]", "UNCINE 1 d Prot/Foir PRCO": 79}
{"test_system": "Phytophthora infestans lycopersici", "assay": "not given", "assay_type": "in vivo", "settings": "METHOD 1 (values marked *)"}
{"smiles": "CSc1nc2cc(CC(=O)Nc3snc(C)c3Cl)ccc2o1", "note": "[220(A3)]", "PHYTIN 1 d Prot/Foir PRCO": "100*"}
{"test_system": "Phytophthora infestans lycopersici", "assay": "not given", "assay_type": "in vivo", "settings": "METHOD 2 (unbanded)"}
{"smiles": "CCC(CC)c1nc2cc(CC(=O)Nc3snc(C)c3Cl)ccc2o1", "note": "[13(A3)]", "PHYTIN 1 d Prot/Foir PRCO": 93}
{"test_system": "Venturia inaequalis", "assay": "Fungicidal test, Venturia inaequalis (VENTIN) on apples, PRCO", "assay_type": "in vivo", "settings": "METHOD 2 (unbanded)"}
{"smiles": "CCC(CC)c1nc2cc(CC(=O)Nc3snc(C)c3Cl)ccc2o1", "note": "[13(A3)]", "VENTIN 1 d Prot/Foir PRCO": 53}
{"smiles": "CC(C)=Cc1nc2cc(CC(=O)Nc3snc(C)c3Cl)ccc2o1", "note": "[46(A3)]", "VENTIN 1 d Prot/Foir PRCO": 84}
{"smiles": "CC=C(C)c1nc2cc(CC(=O)Nc3snc(C)c3Cl)ccc2o1", "note": "[47(A3)]", "VENTIN 1 d Prot/Foir PRCO": 37}
{"smiles": "Cc1nsc(NC(=O)Cc2ccc3oc(COc4ccccc4)nc3c2)c1Cl", "note": "[140(A3)]", "VENTIN 1 d Prot/Foir PRCO": 70}
{"smiles": "CSc1nc2cc(CC(=O)Nc3snc(C)c3Cl)ccc2o1", "note": "[220(A3)]", "VENTIN 1 d Prot/Foir PRCO": 11}
{"smiles": "Cc1nsc(NC(=O)Cc2ccc3oc(-c4ccc(C(C)(C)C)cc4)nc3c2)c1Cl", "note": "[252(A3)]", "VENTIN 1 d Prot/Foir PRCO": "−47"}
{"test_system": "Erysiphe graminis f.sp. tritici", "assay": "Fungicidal test, Erysiphe graminis f.sp. tritici (ERYSGT) on wheat, PRCO", "assay_type": "in vivo", "settings": "1 d Prot/Foir; METHOD 2 (unbanded)"}
{"smiles": "CCC(CC)c1nc2cc(CC(=O)Nc3snc(C)c3Cl)ccc2o1", "note": "[13(A3)]", "ERYSGT 1 d Prot/Foir PRCO": 100}
{"smiles": "CC(C)=Cc1nc2cc(CC(=O)Nc3snc(C)c3Cl)ccc2o1", "note": "[46(A3)]", "ERYSGT 1 d Prot/Foir PRCO": 97}
{"smiles": "CC=C(C)c1nc2cc(CC(=O)Nc3snc(C)c3Cl)ccc2o1", "note": "[47(A3)]", "ERYSGT 1 d Prot/Foir PRCO": 86}
{"smiles": "Cc1nsc(NC(=O)Cc2ccc3oc(COc4ccccc4)nc3c2)c1Cl", "note": "[140(A3)]", "ERYSGT 1 d Prot/Foir PRCO": 44}
{"smiles": "CSc1nc2cc(CC(=O)Nc3snc(C)c3Cl)ccc2o1", "note": "[220(A3)]", "ERYSGT 1 d Prot/Foir PRCO": 12}
{"smiles": "Cc1nsc(NC(=O)Cc2ccc3oc(-c4ccc(C(C)(C)C)cc4)nc3c2)c1Cl", "note": "[252(A3)]", "ERYSGT 1 d Prot/Foir PRCO": 30}
{"test_system": "Septoria nodorum", "assay": "Fungicidal test, Septoria nodorum (LEPTNO) on wheat, PRCO", "assay_type": "in vivo", "settings": "METHOD 2 (unbanded)"}
{"smiles": "CCC(CC)c1nc2cc(CC(=O)Nc3snc(C)c3Cl)ccc2o1", "note": "[13(A3)]", "LEPTNO 1 d Prot/Foir PRCO": 58}
{"smiles": "CC(C)=Cc1nc2cc(CC(=O)Nc3snc(C)c3Cl)ccc2o1", "note": "[46(A3)]", "LEPTNO 1 d Prot/Foir PRCO": 88}
{"smiles": "CC=C(C)c1nc2cc(CC(=O)Nc3snc(C)c3Cl)ccc2o1", "note": "[47(A3)]", "LEPTNO 1 d Prot/Foir PRCO": 63}
{"smiles": "Cc1nsc(NC(=O)Cc2ccc3oc(COc4ccccc4)nc3c2)c1Cl", "note": "[140(A3)]", "LEPTNO 1 d Prot/Foir PRCO": 13}
{"smiles": "CSc1nc2cc(CC(=O)Nc3snc(C)c3Cl)ccc2o1", "note": "[220(A3)]", "LEPTNO 1 d Prot/Foir PRCO": 17}
{"smiles": "Cc1nsc(NC(=O)Cc2ccc3oc(-c4ccc(C(C)(C)C)cc4)nc3c2)c1Cl", "note": "[252(A3)]", "LEPTNO 1 d Prot/Foir PRCO": "−13"}
{"test_system": "Puccinia recondita", "assay": "Fungicidal test, Puccinia recondita (PUCCRT) on wheat, PRCO", "assay_type": "in vivo", "settings": "METHOD 1 (values marked *)"}
{"smiles": "CSc1nc2cc(CC(=O)Nc3snc(C)c3Cl)ccc2o1", "note": "[220(A3)]", "PUCCRT 1 d Prot/Foir PRCO": "100*"}
{"test_system": "Puccinia recondita", "assay": "Fungicidal test, Puccinia recondita (PUCCRT) on wheat, PRCO", "assay_type": "in vivo", "settings": "METHOD 2 (unbanded)"}
{"smiles": "CCC(CC)c1nc2cc(CC(=O)Nc3snc(C)c3Cl)ccc2o1", "note": "[13(A3)]", "PUCCRT 1 d Prot/Foir PRCO": 100}
{"smiles": "CC(C)=Cc1nc2cc(CC(=O)Nc3snc(C)c3Cl)ccc2o1", "note": "[46(A3)]", "PUCCRT 1 d Prot/Foir PRCO": 100}
{"smiles": "CC=C(C)c1nc2cc(CC(=O)Nc3snc(C)c3Cl)ccc2o1", "note": "[47(A3)]", "PUCCRT 1 d Prot/Foir PRCO": 99}
{"smiles": "Cc1nsc(NC(=O)Cc2ccc3oc(COc4ccccc4)nc3c2)c1Cl", "note": "[140(A3)]", "PUCCRT 1 d Prot/Foir PRCO": 96}
{"smiles": "Cc1nsc(NC(=O)Cc2ccc3oc(-c4ccc(C(C)(C)C)cc4)nc3c2)c1Cl", "note": "[252(A3)]", "PUCCRT 1 d Prot/Foir PRCO": 97}
{"test_system": "Pyricularia oryzae", "assay": "not given", "assay_type": "in vivo", "settings": "METHOD 2 (unbanded)"}
{"smiles": "CCC(CC)c1nc2cc(CC(=O)Nc3snc(C)c3Cl)ccc2o1", "note": "[13(A3)]", "PYRIOR 1 d Prot/Foir PRCO": 96}
{"smiles": "CC(C)=Cc1nc2cc(CC(=O)Nc3snc(C)c3Cl)ccc2o1", "note": "[46(A3)]", "PYRIOR 1 d Prot/Foir PRCO": 92}
{"smiles": "CC=C(C)c1nc2cc(CC(=O)Nc3snc(C)c3Cl)ccc2o1", "note": "[47(A3)]", "PYRIOR 1 d Prot/Foir PRCO": 88}
{"smiles": "Cc1nsc(NC(=O)Cc2ccc3oc(-c4ccc(C(C)(C)C)cc4)nc3c2)c1Cl", "note": "[252(A3)]", "PYRIOR 1 d Prot/Foir PRCO": 46}
{"test_system": "Rhizoctonia solani", "assay": "Fungicidal test, Rhizoctonia solani (RHIZSO) on rice, PRCO", "assay_type": "in vivo", "settings": "METHOD 2 (unbanded)"}
{"smiles": "CCC(CC)c1nc2cc(CC(=O)Nc3snc(C)c3Cl)ccc2o1", "note": "[13(A3)]", "RHIZSO 1 d Prot/Foir PRCO": 19}
{"smiles": "CC(C)=Cc1nc2cc(CC(=O)Nc3snc(C)c3Cl)ccc2o1", "note": "[46(A3)]", "RHIZSO 1 d Prot/Foir PRCO": 0}
{"smiles": "CC=C(C)c1nc2cc(CC(=O)Nc3snc(C)c3Cl)ccc2o1", "note": "[47(A3)]", "RHIZSO 1 d Prot/Foir PRCO": 0}
{"smiles": "Cc1nsc(NC(=O)Cc2ccc3oc(COc4ccccc4)nc3c2)c1Cl", "note": "[140(A3)]", "RHIZSO 1 d Prot/Foir PRCO": 0}
{"smiles": "CSc1nc2cc(CC(=O)Nc3snc(C)c3Cl)ccc2o1", "note": "[220(A3)]", "RHIZSO 1 d Prot/Foir PRCO": 0}
{"smiles": "Cc1nsc(NC(=O)Cc2ccc3oc(-c4ccc(C(C)(C)C)cc4)nc3c2)c1Cl", "note": "[252(A3)]", "RHIZSO 1 d Prot/Foir PRCO": 0}
{"test_system": "Musca domestica", "assay": "not given", "settings": "500 ppm by weight; knockdown assessed 15 minutes after treatment"}
{"smiles": "CCC(CC)c1nc2cc(CC(=O)Nc3snc(C)c3Cl)ccc2o1", "note": "[13(A3)]", "MUSCDO AC = Musca domestica (knockdown), score": "9 (9 indicates 80-100% mortality)"}
{"smiles": "CC(C)=Cc1nc2cc(CC(=O)Nc3snc(C)c3Cl)ccc2o1", "note": "[46(A3)]", "MUSCDO AC = Musca domestica (knockdown), score": "5 (5 indicates 40-79% mortality)"}
{"smiles": "CC=C(C)c1nc2cc(CC(=O)Nc3snc(C)c3Cl)ccc2o1", "note": "[47(A3)]", "MUSCDO AC = Musca domestica (knockdown), score": "0 (0 indicates less than 40% mortality)"}
{"smiles": "Cc1nsc(NC(=O)Cc2ccc3oc(COc4ccccc4)nc3c2)c1Cl", "note": "[140(A3)]", "MUSCDO AC = Musca domestica (knockdown), score": "0 (0 indicates less than 40% mortality)"}
{"smiles": "CSc1nc2cc(CC(=O)Nc3snc(C)c3Cl)ccc2o1", "note": "[220(A3)]", "MUSCDO AC = Musca domestica (knockdown), score": "5 (5 indicates 40-79% mortality)"}
{"smiles": "Cc1nsc(NC(=O)Cc2ccc3oc(-c4ccc(C(C)(C)C)cc4)nc3c2)c1Cl", "note": "[252(A3)]", "MUSCDO AC = Musca domestica (knockdown), score": "0 (0 indicates less than 40% mortality)"}
{"test_system": "Meloidogyne incognita", "assay": "Nematode test, J2 infective juveniles of Meloidogyne incognita, mortality", "settings": "12.5 ppm; J2 infective juveniles suspended in solution; mortality after three days"}
{"smiles": "CCC(CC)c1nc2cc(CC(=O)Nc3snc(C)c3Cl)ccc2o1", "note": "[13(A3)]", "MELGIN = Meloidogyne incognita, grading of mortality (score)": "0 (0 indicates less than 40% mortality)"}
{"smiles": "CC(C)=Cc1nc2cc(CC(=O)Nc3snc(C)c3Cl)ccc2o1", "note": "[46(A3)]", "MELGIN = Meloidogyne incognita, grading of mortality (score)": "0 (0 indicates less than 40% mortality)"}
{"smiles": "CC=C(C)c1nc2cc(CC(=O)Nc3snc(C)c3Cl)ccc2o1", "note": "[47(A3)]", "MELGIN = Meloidogyne incognita, grading of mortality (score)": "0 (0 indicates less than 40% mortality)"}
{"smiles": "Cc1nsc(NC(=O)Cc2ccc3oc(COc4ccccc4)nc3c2)c1Cl", "note": "[140(A3)]", "MELGIN = Meloidogyne incognita, grading of mortality (score)": "0 (0 indicates less than 40% mortality)"}
{"smiles": "CSc1nc2cc(CC(=O)Nc3snc(C)c3Cl)ccc2o1", "note": "[220(A3)]", "MELGIN = Meloidogyne incognita, grading of mortality (score)": "0 (0 indicates less than 40% mortality)"}
{"smiles": "Cc1nsc(NC(=O)Cc2ccc3oc(-c4ccc(C(C)(C)C)cc4)nc3c2)c1Cl", "note": "[252(A3)]", "MELGIN = Meloidogyne incognita, grading of mortality (score)": "0 (0 indicates less than 40% mortality)"}
